The values that follow come from paper PMC8279013 (Toxicology letters, 2020).

The target of the experiment is T1, pregnane X receptor (PXR) (Homo sapiens, UniProt O75469).
T1 sequence (O75469 1-434): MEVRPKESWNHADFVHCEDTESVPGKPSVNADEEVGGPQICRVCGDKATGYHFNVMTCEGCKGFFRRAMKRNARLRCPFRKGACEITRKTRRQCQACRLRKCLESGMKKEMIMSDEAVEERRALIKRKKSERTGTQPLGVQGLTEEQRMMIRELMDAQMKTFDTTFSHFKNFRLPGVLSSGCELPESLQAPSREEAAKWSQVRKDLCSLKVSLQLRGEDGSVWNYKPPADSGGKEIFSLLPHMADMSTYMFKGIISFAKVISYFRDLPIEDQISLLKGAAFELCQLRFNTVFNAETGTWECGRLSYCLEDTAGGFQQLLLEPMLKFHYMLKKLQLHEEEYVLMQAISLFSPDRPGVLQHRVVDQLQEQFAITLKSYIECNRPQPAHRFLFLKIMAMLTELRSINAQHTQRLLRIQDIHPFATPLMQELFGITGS
In words: PXR element luciferase reporter, RIF-stimulated, stable hPXR-HRE cells. It counts as cell-based. (In general: A reporter such as luciferase makes a cellular process visible.)

The term IC50 denotes the concentration that inhibits the measured activity by half. `CC(=O)N1CCN(c2ccc(OC[C@H]3CO[C@](Cn4ccnc4)(c4ccc(Cl)cc4Cl)O3)cc2)CC1` (racemic) [ketoconazole] yielded an IC50 of 22.4 µM.
